Assay results published in US7923204B2, “Forward mutation assay based on 5-fluorouracil resistance” (priority 2003, dated 2011).
Like-named read-outs stand apart in the source and are kept apart here.

What was measured:
FU100 [1] = test system: FU100
Experimental: Briefly, in order to practice the disclosed mutation assay one-ml aliquots of exponentially growing bacteria are exposed to the test agent for two hours in the presence and absence of a metabolic activation system, such as a mammalian (i.e., rat, hamster or human) liver homogenate (S9-fraction or liver microsomal enzymes). The aliquots are then diluted, allowed to grow for 3 hours, and assessed for treatment-related toxicity/inhibition by optical density. The cultures are subsequently diluted a second time and grown overnight to permit full recovery from toxicity and to allow expression of the FU^R phenotype. Samples of the cultures are then plated in 384-well microtiter dishes in the presence of 2 μg/ml 5-FU and the pH-sensitive indicator bromcresol purple. Three days later positive wells containing FU^R colonies are detected by their yellow color and enumerated. Treated cultures are then compared to control plates to determine genotoxic activity.
For each mutation experiment, two frozen 1-ml aliquots of FU100 were quickly thawed in a 37° C. water bath, pelleted by centrifugation, washed to remove the DMSO, and suspended in 35 mL of MinE medium. The culture was shaken for approximately 1 hour at 37° C. until the optical density at 600 nm (OD600) reached the target density of 0.3. A 16-ml aliquot of culture was added to each of two 50-ml tubes containing 3.6 ml of a NADPH-generating system (5.6 mM glucose-6-phosphate, 4.5 mM NADP+, 5 mM sucrose, 110 mM Na2HPO4, 37 mM KCl, and 9 mM MgCl2) and either 0.4 ml rat liver S-9 or an equal volume of sodium phosphate buffer. Aliquots of these mixtures were distributed into three 12-well cluster dishes (one for exposure with S-9, one for exposure without S-9, one for controls with and without S-9), and exposed to test compounds as 1-ml aliquots for 2 hour as outlined in FIG. 1.
Following treatment, the 1-ml aliquots were transferred into 9 ml of warm MinE medium in a 50 ml tube and incubated at 37° C. on a rotary wheel for 3 hours. Next, 20 ml of medium was added to each culture tube and 0.25 ml aliquots were transferred to a 96-well plate for OD600 measurements to assess toxicity (OD Day 1). […] Bulk cultures were then incubated overnight in the dark at 30° C. to permit recovery from toxicity and to allow time for the test cells to express the FU^R phenotype.
The next day, OD600 was again assessed to adjust cell number plated on 5-FU plates (OD Day 2; 100 μl of the culture diluted with 150 μl MinE medium for OD600 measurements). For plating, a 35 μl aliquot of each culture was added to 31.4 mL of MinE medium with 2 μg/ml of 5-FU and 10 μg/ml of bromcresol purple. The mixture was then dispersed into a 384-well plate (75 μl/well) and placed at 37° C. for 3 days in a humidified incubator.
The data obtained for both survival (OD day 1), relative number of cells plated (OD day 2), and number of positive wells were imported into an Excel template.
Table 8 summarizes the criteria for positive result in 5-FU assay using the FU100 tester strain described and claimed herein. […] A positive compound was defined when two or more doses met the aforementioned criteria.

[2] = test system: sister chromatid exchange; conditions: cited from earlier work
mouse lymphoma = conditions: cited from earlier work
chromosome aberrations = conditions: cited from earlier work
FU100 [3] = test system: FU100; remark: listed apart in the source
Salmonella = conditions: cited from earlier work
micronucleus = conditions: cited from earlier work
[4] = in the presence of S9 activation (+), FU100, 2 h exposure
[5] = without S9 activation (−), FU100, 2 h exposure
[6] = NTP Results Report 12 Aug. 2002
[7] = in the presence of S9 activation (+), approximate, first dose with greater than 50% survival by optical density on Day 1
[8] = without S9 activation (−), approximate, first dose with greater than 50% survival by optical density on Day 1
[9] = NTP Results Report 12 Aug. 2002 or cited reference (footnotes f, g, i, j)

| SMILES | Results (5-FU assay) (FU100 [1]; [4]) | Results (5-FU assay) (FU100 [1]; [5]) | NTP Results: SC = sister chromatid exchange [2, 6] | NTP Results: ML = mouse lymphoma (mouse lymphoma; [6]) | NTP Results: CA = chromosome aberrations (chromosome aberrations; [6]) | Lowest Positive Dose (FU100 [1]; without S9 activation (−), lowest dose tested giving a positive response) [µg/mL] | LD50 (FU100 [3]; [7]) [µg/mL] | LD50 (FU100 [3]; [8]) [µg/mL] | NTP Results: SA = Salmonella (Salmonella; [9]) | Results (5-FU assay) (FU100 [1]) | NTP Results: SC = sister chromatid exchange [2] | NTP Results: ML = mouse lymphoma (mouse lymphoma) | NTP Results: MN = micronucleus (micronucleus) | NTP Results: SA = Salmonella (Salmonella) | NTP Results: CA = chromosome aberrations (chromosome aberrations) | response in the 5-FU Assay (in words) (FU100 [1]) | NTP Results: MN = micronucleus (micronucleus; [6]) | LD50 (FU100 [3]; Salmonella typhimurium) [µg/mL] |
| --- | --- | --- | --- | --- | --- | --- | --- | --- | --- | --- | --- | --- | --- | --- | --- | --- | --- | --- |
| Oc1ccc(Cl)cc1Cl [2,4-Dichlorophenol] | Neg | Neg | + | + | − |  |  |  |  |  |  |  |  |  |  |  |  |  |
| Nc1ccc([N+](=O)[O-])cc1O [2-Amino-5-nitrophenol] | Neg | Pos | (SA+, CA+, SC+, ML+) | (SA+, CA+, SC+, ML+) | (SA+, CA+, SC+, ML+) | 2.8 | >150 | >300 | (SA+, CA+, SC+, ML+) |  |  |  |  |  |  |  |  |  |
| Nc1ncn([C@@H]2O[C@H](CO)[C@@H](O)[C@H]2O)c(=O)n1 [5-Azacytidine] |  |  |  |  |  |  | >5 | >3 |  | Pos | (SA+, CA+, SC+, ML+, MN+) | (SA+, CA+, SC+, ML+, MN+) | (SA+, CA+, SC+, ML+, MN+) | (SA+, CA+, SC+, ML+, MN+) | (SA+, CA+, SC+, ML+, MN+) |  |  |  |
| Oc1cccc2cccnc12 [8-Hydroxyquinoline] |  |  |  |  |  |  |  |  |  |  | (SA+, CA+^w, SC+, ML+, MN−) | (SA+, CA+^w, SC+, ML+, MN−) | (SA+, CA+^w, SC+, ML+, MN−) | (SA+, CA+^w, SC+, ML+, MN−) | (SA+, CA+^w, SC+, ML+, MN−) | positive compounds in toxic concentrations |  |  |
| COc1ccc(O)c(C(C)(C)C)c1 [Butylated Hydroxyanisole] | Neg | Neg |  |  |  |  | >30 | >30 | (SA−, MN−) |  |  |  |  |  |  |  | (SA−, MN−) |  |
| CCCCC(CC)COC(=O)c1ccccc1C(=O)OCC(CC)CCCC (stereo not drawn) [Di (2-ethylhexyl) phthalate] |  |  |  |  |  |  | >5000 | >5000 |  | Neg | (SA−, CA−, SC+−?, ML−, MN?) | (SA−, CA−, SC+−?, ML−, MN?) | (SA−, CA−, SC+−?, ML−, MN?) | (SA−, CA−, SC+−?, ML−, MN?) | (SA−, CA−, SC+−?, ML−, MN?) | negative/non-toxic |  |  |
| CC/C(=C(/CC)c1ccc(O)cc1)c1ccc(O)cc1 [Diethylstilbestrol] |  |  | − | + | + |  |  |  |  | Neg |  |  |  | (SA−, CA+, SC−, ML+) |  |  |  |  |
| OCCO [Ethylene Glycol] |  |  |  |  |  |  |  |  |  | Neg | (SA−, CA−, SC−, ML−) | (SA−, CA−, SC−, ML−) |  | (SA−, CA−, SC−, ML−) | (SA−, CA−, SC−, ML−) |  |  | >5000 |
